Where two headings read alike, the source gives them in different places.
Test system: rice blast fungus
Assay type: cell-based
Details: for Preventive value: 1,000 μl on oatmeal culture medium, 25° C. for 7 days, elongation length of hyphae vs without treatment

COc1nc(-c2ccc3cnccc3n2)nc(F)c1C(F)(F)F [Example 4, 6-fluoro-4-methoxy-2-(2-(1,6-naphthyridyl))-5-trifluoromethylpyrimidine]
control activity against rice blast fungus (conclusion from the results in Table 1): has a control activity against rice blast fungus | Preventive value (test solution concentration 1000 ppm): 76 | Preventive value (test solution concentration 2000 ppm): 100

From patent US20230096085A1 (priority 2020, published 2023)
